Records with an inconclusive call do not appear. Active and inactive are the calls of the source. The rule behind the calls is not given here.
How the values were obtained:
[1] = tested on: HCS imaging, dynein-mediated cargo transport inhibition; assay: dynein cargo transport inhibitors, potency, dose response, imaging, high-content imaging (AID 463136);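 note: mouse mammary adenocarcinoma 3617.4 cells expressing GFP-tagged rat glucocorticoid receptor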; for inhibition: reference of the scale not given here
[2] = as above; conditions: HCS imaging, dynein-mediated cargo transport inhibition; inhibition at max concentration; at 50 µM; stronger effect = higher value

With C=CCSc1nc2ccccc2n1C(=O)/C=C/c1cc(OC)c(OC)c(OC)c1 the IC50 [1] was > 50 µM (inactive) and the inhibition [2] was 25.5%.

In the case of O=C(/C=C/c1ccccc1Cl)c1cccnc1, the IC50 [1] is reported as 17.2 µM and the inhibition [2] is reported as 85.3%.

With COc1cc(NC(=O)Cn2ncc(Cl)c(Cl)c2=O)c(C)cc1[N+](=O)[O-] the IC50 [1] was 7.75 µM and the inhibition [2] was 64.6%.

With Cc1ccc(N2C(=N)/C(=C3/Nc4ccccc4S3)C(c3ccccc3)C2=O)cc1 (stereo not given) the IC50 [1] was 23.2 µM and the inhibition [2] was 81.8%.

For Cc1ccccc1-n1sc2cc(F)ccc2c1=O, the IC50 [1] was 13.6 µM and the inhibition [2] was 96.2%.

With C[C@@H]1C[C@@H]2O[C@H]2/C=C\C=C\C(=O)Cc2c(Cl)c(O)cc(O)c2C(=O)O1 the IC50 [1] was 0.281 µM and the inhibition [2] was 49.4%.

In the case of Cn1cnc([N+](=O)[O-])c1S(=O)(=O)c1ccc(Cl)cc1, the IC50 [1] is reported as 3.72 µM and the inhibition [2] is reported as 78.2%.

In the case of O=C(/C=C/c1ccncc1)c1ccc2c(c1)OCCO2, the IC50 [1] is reported as 17.1 µM and the inhibition [2] is reported as 72.4%.

With O=c1c(Cl)c(Cl)cnn1Cc1nnc(-c2ccc(Cl)cc2)o1 the IC50 [1] was 22.9 µM and the inhibition [2] was 69.6%.

Work on CSc1nnc(C)c(/C=C/Nc2ccc(C)cc2)n1 yielded an IC50 [1] of 31 µM and an inhibition [2] of 109%.

O=C1/C(=C\c2cccnc2)CN(Cc2ccccc2)C/C1=C\c1cccnc1 showed an IC50 [1] of 15.5 µM and an inhibition [2] of 83.3%.

COc1ccc(Oc2cc(NC(=O)c3nn(C)cc3[N+](=O)[O-])cc([N+](=O)[O-])c2)cc1 showed an IC50 [1] of 43 µM and an inhibition [2] of 69.9%.

In the case of Cc1ccc(C)c2nc3sc(C(=O)N4CCCc5ccccc54)c(N)c3cc12, the IC50 [1] is reported as > 50 µM (inactive) and the inhibition [2] is reported as 34.8%.

O=C(NC1CCCC1)C(c1ccc(F)cc1)N(Cc1ccc(F)cc1)C(=O)CCl (stereo not given) showed an IC50 [1] of 38.5 µM and an inhibition [2] of 73.1%.

In the case of CCOC(=O)c1c(NC(=O)CCl)sc(CN(C)C)c1-c1ccccc1, the IC50 [1] is reported as 29.9 µM and the inhibition [2] is reported as 74.1%.

With O=C(NCc1cccnc1)/C(=C/c1ccc(-c2ccc(Cl)cc2)o1)S(=O)(=O)c1ccccc1 the IC50 [1] was 34.3 µM and the inhibition [2] was 59.1%.

In the case of CC[n+]1c(/C=C/C=C/N(C(C)=O)c2ccccc2)sc2ccccc21, the IC50 [1] is reported as 1.08 µM and the inhibition [2] is reported as 99.6%.

Compound CC1(C)C(=O)Nc2ccccc2N1C(=O)Cn1ncc(Cl)c(Cl)c1=O has an IC50 [1] of 12.3 µM and an inhibition [2] of 71.9%.

Cc1ccc2nc(Cl)c3nnnn3c2c1 showed an IC50 [1] of 9.43 µM and an inhibition [2] of 64%.

Compound Cc1nc([N+](=O)[O-])c(Br)n1CC(=O)c1ccc(F)cc1 has an IC50 [1] of 3.25 µM and an inhibition [2] of 92.2%.

With Cc1nnc(NC(=O)c2sc3nc(-c4cccs4)cc(C(F)(F)F)c3c2N)s1 the IC50 [1] was 2.21 µM and the inhibition [2] was 154%.

Cc1cc(C(=O)CCl)c(C)n1Cc1ccco1 gave an IC50 [1] of 13.5 µM and an inhibition [2] of 85.7%.

CCOC(=O)C(C(=O)OCC)C(C(=O)OCC)N1CCOCC1 (stereo not given) showed an IC50 [1] of 14 µM and an inhibition [2] of 89.2%.

For CCc1ccc(N2C(=O)NC(=O)/C(=C\C=C\c3ccco3)C2=O)cc1, the IC50 [1] was 27.5 µM and the inhibition [2] was 165%.

Clc1ncnc2scc(-c3ccc(Br)cc3)c12 gave an IC50 [1] of 19.9 µM and an inhibition [2] of 85.1%.

Work on CC1(C)CCSC(/C=C/c2ccccc2)=N1 yielded an IC50 [1] of 18.7 µM and an inhibition [2] of 92.6%.

In the case of CC(=O)N(C1CC(C)C(C#N)(C#N)C1(C#N)C#N)N(C)C (stereo not given), the IC50 [1] is reported as > 50 µM (inactive) and the inhibition [2] is reported as 5.79%.

CCCCN(C)C1=CC2=CC(=C(C#N)C#N)CCC2CC1 (stereo not given) gave an IC50 [1] of 13.6 µM and an inhibition [2] of 99.2%.

With CCSc1nc2ccccc2n1C(=O)/C=C\c1ccc(OC)c(OC)c1 the IC50 [1] was > 50 µM (inactive) and the inhibition [2] was 7.37%.

CCCCc1cc(O)c(CCCC)c(O)c1 gave an IC50 [1] of 2.31 µM and an inhibition [2] of 76.8%.

COC(CN(C(=O)CCl)C(C(=O)NC1CCCCC1)c1ccc(Cl)cc1)OC (stereo not given) showed an IC50 [1] of 22.6 µM and an inhibition [2] of 82.6%.

In the case of Cc1cc(C)cc(Cn2ncc(Cl)c(Cl)c2=O)c1, the IC50 [1] is reported as 22.7 µM and the inhibition [2] is reported as 63.9%.

In the case of O=C1C=C(NC2=CC3OC(c4ccccc4)OCC3OC2=O)CCC1 (stereo not given), the IC50 [1] is reported as > 50 µM (inactive) and the inhibition [2] is reported as 13%.

Cc1nc([N+](=O)[O-])c(Br)n1CC(=O)c1cccc([N+](=O)[O-])c1 gave an IC50 [1] of 9.94 µM and an inhibition [2] of 91.4%.

In the case of O=c1cc(-c2c(F)c(F)c(F)c(F)c2F)oc2c(F)c(F)c(F)c(F)c12, the IC50 [1] is reported as 27.7 µM and the inhibition [2] is reported as 92%.

In the case of O=[N+]([O-])c1c(NCCCO)cc(Sc2nc3ccccc3s2)c2nonc12, the IC50 [1] is reported as > 50 µM (inactive) and the inhibition [2] is reported as -7.73%.

For CCCn1nc(-c2ccccc2)c2nc3ccccc3nc21, the IC50 [1] was > 50 µM (inactive) and the inhibition [2] was -0.033%.

In the case of O=C(NCc1cccnc1)/C(=C\c1ccc(-c2ccc(Cl)c(Cl)c2)o1)S(=O)(=O)c1ccccc1, the IC50 [1] is reported as > 50 µM (inactive) and the inhibition [2] is reported as 9.8%.

For CCOC(=O)C(=Cc1c[nH]c2ccc(S(=O)(=O)N(C)C)cc12)C(=O)OCC, the IC50 [1] was 29.5 µM and the inhibition [2] was 92.8%.

For N#CC(C#N)=C1C=CC=CN1/C(=C\c1ccco1)C(=O)c1ccccc1, the IC50 [1] was > 50 µM (inactive) and the inhibition [2] was 19.2%.

With CCCn1nc([N+](=O)[O-])c(C(C#N)c2nc3ccccc3s2)c(Cl)c1=O (stereo not given) the IC50 [1] was 14.6 µM and the inhibition [2] was 97%.

With N#Cc1cccc(N=c2ssnc2Cl)c1 the IC50 [1] was > 50 µM (inactive) and the inhibition [2] was 14.7%.

CC(C)(C)C(=O)Cn1ncc(Br)c(Br)c1=O gave an IC50 [1] of 7.91 µM and an inhibition [2] of 59.6%.

In the case of O=C(CCl)N1N=C(c2cccs2)CC1c1ccco1 (stereo not given), the IC50 [1] is reported as > 50 µM (inactive) and the inhibition [2] is reported as 47.6%.

In the case of COc1cccc(-n2nc(C#N)c(Cl)cc2=O)c1, the IC50 [1] is reported as 11.2 µM and the inhibition [2] is reported as 48.5%.

With C#CC(=O)N(c1ccc(OC)cc1OC)C(C(=O)NC1CCCC1)c1cccs1 (stereo not given) the IC50 [1] was > 50 µM (inactive) and the inhibition [2] was 0.987%.

Cc1ccccc1NC(=O)COC(=O)c1ccc(S(C)(=O)=O)c([N+](=O)[O-])c1 gave an IC50 [1] of 31.8 µM and an inhibition [2] of 81.2%.

Cc1c(C#N)c(NC(=O)CCl)n(Cc2cccs2)c1C gave an IC50 [1] of 24.7 µM and an inhibition [2] of 69.2%.

In the case of O=C(CCl)N(c1ccc(Cl)cc1)c1c[nH]c2ccccc12, the IC50 [1] is reported as > 50 µM (inactive) and the inhibition [2] is reported as 10.3%.

For CCOC(=O)C(=Cc1ccc(OCc2ccc([N+](=O)[O-])cc2)c(OC)c1)C(=O)OCC, the IC50 [1] was > 50 µM (inactive) and the inhibition [2] was 2.92%.

For COc1ccc2c(c1)c1ccc3c(c1n2C)C(=O)C=CC3=O, the IC50 [1] was 14.5 µM and the inhibition [2] was 93.1%.

Work on CC(=O)/C(=C/c1ccccc1)C(=O)Nc1ccccc1C yielded an IC50 [1] of 15.9 µM and an inhibition [2] of 70.1%.

With O=[N+]([O-])c1ccc(NCc2ccccc2)c2nonc12 the IC50 [1] was 26.9 µM and the inhibition [2] was 99.5%.

O=c1c(Cl)c(Cl)cnn1-c1ccccc1 gave an IC50 [1] of 9.57 µM and an inhibition [2] of 81.7%.

Work on Cc1ccc(C(=O)NC(C#N)=C(Cl)Cl)cc1 yielded an IC50 [1] of 6.71 µM and an inhibition [2] of 82.3%.

For COc1cccc(C2CC3C(=O)C=CC2N3Cc2ccccc2)c1 (stereo not given), the IC50 [1] was 13.3 µM and the inhibition [2] was 90%.

With COc1ccc(/C=C\c2nc(=O)c3ccccc3o2)cc1 the IC50 [1] was 6.91 µM and the inhibition [2] was 86.9%.

O=C(OCn1ncc(Br)c(Br)c1=O)c1ccc(F)cc1 showed an IC50 [1] of 7.52 µM and an inhibition [2] of 55%.

In the case of O=C(CCl)N(Cc1ccccc1)c1ccccc1, the IC50 [1] is reported as 10 µM and the inhibition [2] is reported as 69.4%.

In the case of COc1cccc(N2C(=O)NC(=O)/C(=C\c3ccc([N+](=O)[O-])s3)C2=O)c1, the IC50 [1] is reported as 13.5 µM and the inhibition [2] is reported as 85.4%.

From PubChem BioAssay AID463136 (University of Pittsburgh Molecular Library Screening Center, 2010)
